Results: patent US12209081B2 (Katholieke Universiteit Leuven, priority 2020, dated 2025)

molecular target: mouse TRPM3α2 (mTRPM3) ion channel (Mus musculus (Mouse), UniProt J9SQF3); experiment: TRPM3 ion channel driven Ca2+ uptake, Fluo-4 AM assay, mTRPM3alpha2 overexpressing flip-in HEK293 cells stimulated with pregnenolone sulfate; type: cell-based; settings: PS (50 μM) stimulated, cpds. 608-666
In short: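 Flip-in HEK293 cells loaded with Fluo-4 AM were added to plates holding compound plus 50 μM pregnenolone sulfate in Ca2+-containing Krebs buffer. Fluorescence (ex 485/em 535 nm) read directly after cell addition; % inhibition relative to PS-stimulated vehicle and positive-control inhibitor.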

Sequence of mouse TRPM3α2 (mTRPM3) ion channel (J9SQF3 other isoform, or with tags, fused parts or gaps): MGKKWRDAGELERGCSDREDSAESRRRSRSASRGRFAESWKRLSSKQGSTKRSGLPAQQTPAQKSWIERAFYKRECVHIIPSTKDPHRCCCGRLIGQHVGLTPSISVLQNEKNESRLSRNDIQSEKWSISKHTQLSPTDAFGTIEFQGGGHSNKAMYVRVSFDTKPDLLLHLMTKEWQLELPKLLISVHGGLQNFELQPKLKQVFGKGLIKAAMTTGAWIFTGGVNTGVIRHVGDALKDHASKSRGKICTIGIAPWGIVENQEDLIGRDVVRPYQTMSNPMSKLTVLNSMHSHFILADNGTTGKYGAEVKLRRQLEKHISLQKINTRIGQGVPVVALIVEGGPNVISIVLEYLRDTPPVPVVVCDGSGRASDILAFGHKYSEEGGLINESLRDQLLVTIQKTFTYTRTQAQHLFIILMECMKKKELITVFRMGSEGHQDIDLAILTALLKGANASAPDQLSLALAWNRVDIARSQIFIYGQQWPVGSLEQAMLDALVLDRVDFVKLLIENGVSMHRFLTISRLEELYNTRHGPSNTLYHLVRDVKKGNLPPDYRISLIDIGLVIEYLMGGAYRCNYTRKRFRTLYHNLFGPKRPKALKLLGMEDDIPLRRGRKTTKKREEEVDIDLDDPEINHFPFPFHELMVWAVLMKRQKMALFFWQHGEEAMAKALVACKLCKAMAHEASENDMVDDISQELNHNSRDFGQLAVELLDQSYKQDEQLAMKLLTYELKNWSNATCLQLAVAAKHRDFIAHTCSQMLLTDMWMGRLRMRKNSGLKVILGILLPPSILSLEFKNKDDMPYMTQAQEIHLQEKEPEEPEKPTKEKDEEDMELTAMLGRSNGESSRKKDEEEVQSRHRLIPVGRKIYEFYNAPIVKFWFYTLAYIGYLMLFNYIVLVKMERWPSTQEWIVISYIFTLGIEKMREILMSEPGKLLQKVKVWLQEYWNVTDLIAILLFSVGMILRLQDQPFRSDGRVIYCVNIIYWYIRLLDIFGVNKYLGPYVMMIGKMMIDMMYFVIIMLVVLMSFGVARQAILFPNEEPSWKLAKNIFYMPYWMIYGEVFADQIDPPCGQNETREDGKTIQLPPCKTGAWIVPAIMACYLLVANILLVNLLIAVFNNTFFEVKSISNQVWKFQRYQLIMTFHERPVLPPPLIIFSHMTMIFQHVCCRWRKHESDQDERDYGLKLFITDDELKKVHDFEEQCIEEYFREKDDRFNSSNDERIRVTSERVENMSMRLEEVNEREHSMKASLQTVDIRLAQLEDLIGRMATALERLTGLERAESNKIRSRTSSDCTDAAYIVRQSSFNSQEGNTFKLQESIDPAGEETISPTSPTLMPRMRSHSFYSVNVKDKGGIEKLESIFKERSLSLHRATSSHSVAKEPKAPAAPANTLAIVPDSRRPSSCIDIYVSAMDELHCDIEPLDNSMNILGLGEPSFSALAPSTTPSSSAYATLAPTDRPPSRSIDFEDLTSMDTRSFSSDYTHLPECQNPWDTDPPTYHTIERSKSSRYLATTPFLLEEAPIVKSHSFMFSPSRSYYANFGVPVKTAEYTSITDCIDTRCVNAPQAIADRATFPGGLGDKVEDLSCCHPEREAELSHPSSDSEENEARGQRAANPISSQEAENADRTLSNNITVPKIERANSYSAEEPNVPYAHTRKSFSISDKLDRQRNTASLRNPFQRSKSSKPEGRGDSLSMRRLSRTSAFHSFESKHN

Row | IC50 [µM] | Structure (SMILES)
1 | < 1 | Cc1oc2ccc(OCc3cccnc3C(F)(F)F)cc2c1C(=O)NC1COCC1(F)F (stereo not drawn) [compound 664, N-(4,4-difluorotetrahydrofuran-3-yl)-2-methyl-5-((2-(trifluoromethyl)pyridin-3-yl)methoxy)benzofuran-3-carboxamide]
2 | < 1 | COc1ncccc1COc1ccc2oc(C)c(C(=O)NC3COCC3(F)F)c2c1 (stereo not drawn) [compound 665, N-(4,4-difluorotetrahydrofuran-3-yl)-5-((2-methoxypyridin-3-yl)methoxy)-2-methylbenzofuran-3-carboxamide]
3 | < 1 | Cc1ncsc1COc1ccc2oc(C)c(C(=O)NCC(F)(F)F)c2c1 [compound 666, 2-methyl-5-((4-methylthiazol-5-yl)methoxy)-N-(2,2,2-trifluoroethyl)benzofuran-3-carboxamide]

same assay, conditions: PS (50 μM) stimulated, cpds. 667-751

Row | IC50 [µM] | Structure (SMILES)
4 | < 1 | Cc1cnn(C)c1COc1ccc2oc(C)c(C(=O)N[C@@H](CO)C(N)=O)c2c1 [compound 668, (S)-N-(1-Amino-3-hydroxy-1-oxopropan-2-yl)-5-((1,4-dimethyl-1H-pyrazol-5-yl)methoxy)-2-methylbenzofuran-3-carboxamide]
5 | < 1 | Cc1oc2ccc(OCc3c(Cl)cnn3C)cc2c1C(=O)N[C@@H](CO)C(N)=O [compound 670, (S)-N-(1-Amino-3-hydroxy-1-oxopropan-2-yl)-5-((4-chloro-1-methyl-1H-pyrazol-5-yl)methoxy) -2-methylbenzofuran-3-carboxamide]
6 | < 1 | Cc1oc2ccc(OCc3c(Cl)cnn3C(C)C)cc2c1C(=O)N[C@@H](CO)C(N)=O [compound 672, (S)-N-(1-amino-3-hydroxy-1-oxopropan-2-yl)-5-((4-chloro-1-isopropyl-1H-pyrazol-5-yl)methoxy)-2-methylbenzofuran-3-carboxamide]
7 | < 1 | Cc1oc2ccc(OCc3ccnn3C(C)C)cc2c1C(=O)N[C@@H](CO)C(N)=O [compound 676, (S)-N-(1-amino-3-hydroxy-1-oxopropan-2-yl)-5-((1-isopropyl-1H-pyrazol-5-yl)methoxy)-2-methylbenzofuran-3-carboxamide]
8 | < 1 | Cc1nc(C)c(COc2ccc3oc(C)c(C(=O)N[C@@H](CO)C(N)=O)c3c2)o1 [compound 678, (S)-N-(1-Amino-3-hydroxy-1-oxopropan-2-yl)-5-((2. 4-dimethyloxazol-5-yl)methoxy)-2-methylbenzofuran-3-carboxamide]
9 | < 1 | Cc1ncoc1COc1ccc2oc(C)c(C(=O)N[C@@H](CO)C(N)=O)c2c1 [compound 680, (S)-N-(1-Amino-3-hydroxy-1-oxopropan-2-yl)-2-methyl-5-((4-methyloxazol-5-yl)methoxy)benzofuran-3-carboxamide]
10 | < 1 | Cc1oc2ccc(OCc3cnc(C(C)C)s3)cc2c1C(=O)N[C@@H](CO)C(N)=O [compound 682, (S)-N-(1-Amino-3-hydroxy-1-oxopropan-2-yl)-5-((2-isopropylthiazol-5-yl)methoxy)-2-methylbenzofuran-3-carboxamide]
11 | < 1 | Cc1ncc(COc2ccc3oc(C)c(C(=O)NC4(C(F)F)CCC4)c3c2)s1 [compound 683, N-(1-(Difluoromethyl)cyclobutyl)-2-methyl-5-((2-methylthiazol-5-yl)methoxy)benzofuran-3-carboxamide]
12 | < 1 | Cc1cnc(COc2ccc3oc(C)c(C(=O)N[C@@H](CO)C(N)=O)c3c2)s1 [compound 684, (S)-N-(1-Amino-3-hydroxy-1-oxopropan-2-yl)-2-methyl-5-((5-methylthiazol-2-yl)methoxy)benzofuran-3-carboxamide]
13 | < 1 | Cc1oc2ccc(OCc3ccn(C)n3)cc2c1C(=O)N[C@@H](CO)C(N)=O [compound 686, (S)-N-(1-Amino-3-hydroxy-1-oxopropan-2-yl)-2-methyl-5-((1-methyl-1H-pyrazol-3-yl)methoxy)benzofuran-3-carboxamide]
14 | < 1 | Cc1oc2ccc(OCc3ccnn3CC(F)(F)F)cc2c1C(=O)N[C@@H](CO)C(N)=O [compound 688, (S)-N-(1-Amino-3-hydroxy-1-oxopropan-2-yl)-2-methyl-5-((1-(2,2,2-trifluoroethyl)-1H-pyrazol-5-yl)methoxy)benzofuran-3-carboxamide]
15 | < 1 | Cc1oc2ccc(OCc3ccnn3CC3CC3)cc2c1C(=O)N[C@@H](CO)C(N)=O [compound 690, (S)-N-(1-amino-3-hydroxy-1-oxopropan-2-yl)-5-((1-(cyclopropylmethyl)-1H-pyrazol-5-yl)methoxy)-2-methylbenzofuran-3-carboxamide]
16 | < 1 | Cc1oc2ccc(OCc3cn(C)nc3C(F)(F)F)cc2c1C(=O)N[C@@H](CO)C(N)=O [compound 692, (S)-N-(1-Amino-3-hydroxy-1-oxopropan-2-yl)-2-methyl-5-((1-methyl-3-(trifluoromethyl)-1H -pyrazol-4-yl)methoxy)benzofuran-3-carboxamide]
17 | < 1 | Cc1oc2ccc(OCc3scnc3C(F)(F)F)cc2c1C(=O)N[C@@H](CO)C(N)=O [compound 694, (S)-N-(1-Amino-3-hydroxy-1-oxopropan-2-yl)-2-methyl-5-((4-(trifluoromethyl)thiazol-5-yl)methoxy)benzofuran-3-carboxamide]
18 | < 1 | Cc1oc2ccc(OCc3nccs3)cc2c1C(=O)N[C@@H](CO)C(N)=O [compound 695, (S)-N-(1-Amino-3-hydroxy-1-oxopropan-2-yl)-2-methyl-5-(thiazol-2-ylmethoxy)benzofuran-3-carboxamide]
19 | < 1 | Cc1oc2ccc(OCc3ccc(F)cn3)cc2c1C(=O)N[C@H](C(N)=O)[C@@H](C)O [compound 696, N-((2S,3R)-1-amino-3-hydroxy-1-oxobutan-2-yl)-5-((5-fluoropyridin-2-yl)methoxy)-2-methylbenzofuran-3-carboxamide]
20 | < 1 | Cc1oc2ccc(OCc3cncs3)cc2c1C(=O)N[C@@H](CO)C(N)=O [compound 697, (S)-N-(1-Amino-3-hydroxy-1-oxopropan-2-yl)-2-methyl-5-(thiazol-5-ylmethoxy)benzofuran-3-carboxamide]
21 | < 1 | Cc1oc2ccc(OCc3cnn(C)c3)cc2c1C(=O)N[C@@H](CO)C(N)=O [compound 698, (S)-N-(1-Amino-3-hydroxy-1-oxopropan-2-yl)-2-methyl-5-((1-methyl-1H-pyrazol-4-yl)methoxy)benzofuran-3-carboxamide]
22 | < 1 | Cc1ccc(COc2ccc3oc(C)c(C(=O)N[C@@H](CO)C(N)=O)c3c2)nc1 [compound 700, (S)-N-(1-Amino-3-hydroxy-1-oxopropan-2-yl)-2-methyl-5-((5-methylpyridin-2-yl)methoxy)benzofuran-3-carboxamide]
23 | < 1 | Cc1oc2ccc(OCc3cccnc3C3CC3)cc2c1C(=O)N[C@@H](CO)C(N)=O [compound 702, (S)-N-(1-Amino-3-hydroxy-1-oxopropan-2-yl)-5-((2-cyclopropylpyridin-3-yl)methoxy)-2-methylbenzofuran-3-carboxamide]
24 | < 1 | Cc1oc2ccc(OCc3ncccc3C3CC3)cc2c1C(=O)N[C@@H](CO)C(N)=O [compound 704, (S)-N-(1-Amino-3-hydroxy-1-oxopropan-2-yl)-5-((3-cyclopropylpyridin-2-yl)methoxy)-2-methylbenzofuran-3-carboxamide]
25 | < 1 | Cc1oc2ccc(OCc3cccnc3N3CCC3)cc2c1C(=O)N[C@@H](CO)C(N)=O [compound 706, (S)-N-(1-amino-3-hydroxy-1-oxopropan-2-yl)-5-((2-(azetidin-1-yl)pyridin-3-yl)methoxy)-2-methylbenzofuran-3-carboxamide]
26 | < 1 | Cc1ncc(COc2ccc3oc(C)c(C(=O)N[C@@H](CO)C(N)=O)c3c2)cn1 [compound 708, (S)-N-(1-Amino-3-hydroxy-1-oxopropan-2-yl)-2-methyl-5-((2-methylpyrimidin-5-yl)methoxy)benzofuran-3-carboxamide]
27 | < 1 | Cc1oc2ccc(OCc3cccnc3OC3CC3)cc2c1C(=O)N[C@@H](CO)C(N)=O [compound 710, (S)-N-(1-amino-3-hydroxy-1-oxopropan-2-yl)-5-((2-cyclopropoxypyridin-3-yl)methoxy)-2-methylbenzofuran-3-carboxamide]
28 | < 1 | Cc1oc2ccc(OCc3cccnc3OC3CC3)cc2c1C(=O)NC1(CO)CCOCC1 [compound 711, 5-((2-cyclopropoxypyridin-3-yl)methoxy)-N-(4-(hydroxymethyl)tetrahydro-2H-pyran-4-yl)-2-methylbenzofuran-3-carboxamide]
29 | < 1 | Cc1oc2ccc(OCc3ncccn3)cc2c1C(=O)N[C@@H](CO)C(N)=O [compound 712, (S)-N-(1-Amino-3-hydroxy-1-oxopropan-2-yl)-2-methyl-5-(pyrimidin-2-ylmethoxy)benzofuran-3-carboxamide]
30 | < 1 | Cc1oc2ccc(OCc3cnccn3)cc2c1C(=O)N[C@@H](CO)C(N)=O [compound 714, (S)-N-(1-Amino-3-hydroxy-1-oxopropan-2-yl)-2-methyl-5-(pyrazin-2-ylmethoxy)benzofuran-3-carboxamide]
31 | < 1 | COc1ncccc1COc1ccc2oc(C)c(C(=O)N[C@@H](CO)C(N)=O)c2c1 [compound 715, (S)-N-(1-amino-3-hydroxy-1-oxopropan-2-yl)-5-((2-methoxypyridin-3-yl)methoxy)-2-methylbenzofuran-3-carboxamide]
32 | < 1 | Cc1oc2ccc(OCc3ccncc3)cc2c1C(=O)N[C@@H](CO)C(N)=O [compound 716, (S)-N-(1-Amino-3-hydroxy-1-oxopropan-2-yl)-2-methyl-5-(pyridin-4-ylmethoxy)benzofuran-3-carboxamide]
33 | < 1 | Cc1oc2ccc(OCc3ncccc3C(F)F)cc2c1C(=O)NC1CCNCC1(F)F (stereo not drawn) [compound 717, 5-((3-(Difluoromethyl)pyridin-2-yl)methoxy)-N-(3,3-difluoropiperidin-4-yl)-2-methylbenzofuran-3-carboxamide]
